Data published in publication PMC10866072, “Design, synthesis, molecular modelling and biological evaluation of novel 6-amino-5-cyano-2-thiopyrimidine derivatives as potent anticancer agents against leukemia and apoptotic inducers” (Journal of Enzyme Inhibition and Medicinal Chemistry, 2024).

Key:
[1] = test system: HOP-92; type: cell-based; details: Homo sapiens, one dose 10^-5 M, 48 h
[2] = test system: UO-31; type: cell-based; details: Homo sapiens, UO-31, 48 h, one dose 10^-5 M, 48 h
[3] = test system: T-47D; type: cell-based; details: Homo sapiens, T47D, one dose 10^-5 M, 48 h, read-out: % growth
[4] = test system: TK-10; type: cell-based; details: Homo sapiens, one dose 10^-5 M, 48 h
[5] = test system: OVCAR-3; type: cell-based; details: Homo sapiens, one dose 10^-5 M, 48 h
[6] = test system: NCI/ADR-RES; type: cell-based; details: Homo sapiens, one dose 10^-5 M, 48 h
[7] = test system: SF-268; type: cell-based; details: Homo sapiens, one dose 10^-5 M, 48 h, read-out: % growth
[8] = test system: SNB-75; type: cell-based; details: Homo sapiens, one dose 10^-5 M, 48 h
[9] = test system: HCT-116; type: cell-based; details: Homo sapiens, one dose 10^-5 M, 48 h, read-out: % growth
[10] = test system: M14; type: cell-based; details: Homo sapiens, one dose 10^-5 M, 48 h
[11] = test system: SNB-19; type: cell-based; details: Homo sapiens, one dose 10^-5 M, 48 h, read-out: % growth
[12] = test system: IGROV1; type: cell-based; details: Homo sapiens, IGROV-1, one dose 10^-5 M, 48 h, read-out: % growth
[13] = test system: OVCAR-8; type: cell-based; details: Homo sapiens, one dose 10^-5 M, 48 h
[14] = test system: SK-OV-3; type: cell-based; details: Homo sapiens, one dose 10^-5 M, 48 h
[15] = test system: UACC-257; type: cell-based; details: Homo sapiens, one dose 10^-5 M, 48 h
[16] = test system: 786-0; type: cell-based; details: Homo sapiens, one dose 10^-5 M, 48 h
[17] = test system: NCI-H23; type: cell-based; details: Homo sapiens, one dose 10^-5 M, 48 h, read-out: % growth
[18] = test system: MCF7; type: cell-based; details: Homo sapiens, one dose 10^-5 M, 48 h, read-out: % growth
[19] = test system: HCT-15; type: cell-based; details: Homo sapiens, one dose 10^-5 M, 48 h, read-out: % growth
[20] = test system: MOLT-4; type: cell-based; details: Homo sapiens, one dose 10^-5 M, 48 h, read-out: % growth
[21] = test system: SK-MEL-28; type: cell-based; details: Homo sapiens, one dose 10^-5 M, 48 h
[22] = test system: ACHN; type: cell-based; details: Homo sapiens, one dose 10^-5 M, 48 h
[23] = test system: COLO 205; type: cell-based; details: Homo sapiens, one dose 10^-5 M, 48 h
[24] = test system: MDA-MB-468; type: cell-based; details: Homo sapiens, one dose 10^-5 M, 48 h
[25] = test system: full NCI 60 cell lines panel; details: for activity at 10 µM: Homo sapiens, 60 cell, 48 h, read-out: Mean % growth; for activity on all 60 cancer cell lines tested (in words): one dose
[26] = test system: PC-3; type: cell-based; details: Homo sapiens, one dose 10^-5 M, 48 h
[27] = test system: U251; type: cell-based; details: Homo sapiens, U-251, one dose 10^-5 M, 48 h
[28] = test system: NCI-H522; type: cell-based; details: Homo sapiens, one dose 10^-5 M, 48 h
[29] = test system: CAKI-1; type: cell-based; details: Homo sapiens, CAKI-1, 48 h, one dose 10^-5 M, 48 h
[30] = test system: A549/ATCC; type: cell-based; details: Homo sapiens, one dose 10^-5 M, 48 h
[31] = test system: UACC-62; type: cell-based; details: Homo sapiens, one dose 10^-5 M, 48 h
[32] = test system: HL-60(TB); type: cell-based; details: Homo sapiens, one dose 10^-5 M, 48 h
[33] = test system: KM12; type: cell-based; details: Homo sapiens, one dose 10^-5 M, 48 h
[34] = test system: BT-549; type: cell-based; details: Homo sapiens, one dose 10^-5 M, 48 h
[35] = test system: SK-MEL-2; type: cell-based; details: Homo sapiens, one dose 10^-5 M, 48 h
[36] = test system: SN12C; type: cell-based, human; details: Homo sapiens, one dose 10^-5 M, 48 h
[37] = test system: OVCAR-4; type: cell-based; details: Homo sapiens, one dose 10^-5 M, 48 h
[38] = test system: SW-620; type: cell-based; details: Homo sapiens, one dose 10^-5 M, 48 h
[39] = test system: MDA-MB-231/ATCC; type: cell-based; details: Homo sapiens, one dose 10^-5 M, 48 h
[40] = test system: DU-145; type: cell-based; details: Homo sapiens, one dose 10^-5 M, 48 h
[41] = test system: HS 578T; type: cell-based; details: Homo sapiens; one dose 10^-5 M, 48 h; HS 578T; read-out: % growth
[42] = test system: K-562; type: cell-based; details: Homo sapiens, K562, one dose 10^-5 M, 48 h
[43] = test system: LOX IMVI; type: cell-based; details: Homo sapiens, one dose 10^-5 M, 48 h, read-out: % growth
[44] = test system: EKVX; type: cell-based; details: Homo sapiens, one dose 10^-5 M, 48 h
[45] = test system: NCI-H226; type: cell-based; details: Homo sapiens, one dose 10^-5 M, 48 h
[46] = test system: HT29; type: cell-based; details: Homo sapiens, HT-29, one dose 10^-5 M, 48 h
[47] = test system: NCI-H460; type: cell-based; details: Homo sapiens, one dose 10^-5 M, 48 h, read-out: % growth
[48] = test system: SR; type: cell-based; details: Homo sapiens, one dose 10^-5 M, 48 h
[49] = test system: MDA-MB-435; type: cell-based; details: Homo sapiens, one dose 10^-5 M, 48 h, read-out: % growth
[50] = test system: SF-539; type: cell-based; details: Homo sapiens, one dose 10^-5 M, 48 h
[51] = test system: HOP-62; type: cell-based; details: Homo sapiens, one dose 10^-5 M, 48 h
[52] = test system: SF-295; type: cell-based; details: Homo sapiens, one dose 10^-5 M, 48 h
[53] = test system: MALME-3M; type: cell-based; details: Homo sapiens, one dose 10^-5 M, 48 h
[54] = test system: A498; type: cell-based; details: Homo sapiens, one dose 10^-5 M, 48 h
[55] = test system: SK-MEL-5; type: cell-based; details: Homo sapiens, one dose 10^-5 M, 48 h, read-out: % growth
[56] = test system: RPMI-8226; type: cell-based; details: Homo sapiens, one dose 10^-5 M, 48 h
[57] = test system: OVCAR-5; type: cell-based; details: Homo sapiens, one dose 10^-5 M, 48 h
[58] = test system: CCRF-CEM; type: cell-based; details: Homo sapiens, one dose 10^-5 M, 48 h
[59] = test system: RXF 393; type: cell-based; details: Homo sapiens, RXF 393, 48 h, one dose 10^-5 M, 48 h, read-out: % growth
[60] = test system: HCC-2998; type: cell-based; details: Homo sapiens, one dose 10^-5 M, 48 h

Compound: CN(C)c1ccc(-c2cc([N+](=O)[O-])ccc2C=NNC(=N)c2cnc(S)nc2N)cc1 [Compound 4c, 4-amino-N'-[6-[4-(dimethylamino)phenyl]-(4-nitrophenyl)methylene]-2-mercapto pyrimidine-5-carboximidohydrazide]
- % growth at 10 µM [1]: 118%
- % cell growth at 10 µM [2]: 75.4%
- activity at 10 µM [3]: 101%
- % cell growth at 10 µM [4]: 102%
- % growth at 10 µM [5]: 106%
- cell growth percent at 10 µM [6]: 102%
- activity at 10 µM [7]: 87.8%
- % growth at 10 µM [8]: 100%
- activity at 10 µM [9]: 106%
- % growth at 10 µM [10]: 110%
- activity at 10 µM [11]: 97.2%
- activity at 10 µM [12]: 102%
- % growth of cells at 10 µM [13]: 95.8%
- % growth at 10 µM [14]: 95.7%
- percent cell growth at 10 µM [15]: 106%
- % growth at 10 µM [16]: 95.7%
- activity at 10 µM [17]: 104%
- activity at 10 µM [18]: 92%
- activity at 10 µM [19]: 98.5%
- activity at 10 µM [20]: 109%
- % cell growth at 10 µM [21]: 112%
- % growth at 10 µM [22]: 103%
- % growth at 10 µM [23]: 127%
- percent cell growth at 10 µM [24]: 108%
- activity at 10 µM [25]: 103%
- activity on all 60 cancer cell lines tested (in words) [25]: weak activity
- percent cell growth at 10 µM [26]: 94.1%
- % growth at 10 µM [27]: 106%
- % growth at 10 µM [28]: 96%
- % growth at 10 µM [29]: 99.6%
- % growth at 10 µM [30]: 104%
- % growth at 10 µM [31]: 100%
- % growth at 10 µM [32]: 96.4%
- % growth at 10 µM [33]: 100%
- % cell growth at 10 µM [34]: 112%
- % growth at 10 µM [35]: 114%
- % growth at 10 µM [36]: 99.5%
- % growth at 10 µM [37]: 101%
- % growth at 10 µM [38]: 109%
- % growth at 10 µM [39]: 111%
- % growth at 10 µM [40]: 108%
- activity at 10 µM [41]: 95.2%
- % growth at 10 µM [42]: 104%
- activity at 10 µM [43]: 99.3%
- % cell growth at 10 µM [44]: 100%
- % growth at 10 µM [45]: 112%
- % growth at 10 µM [46]: 109%
- activity at 10 µM [47]: 108%
- percent cell growth at 10 µM [48]: 107%
- activity at 10 µM [49]: 102%
- % growth at 10 µM [50]: 98.8%
- % growth at 10 µM [51]: 102%
- % cell growth at 10 µM [52]: 92.4%
- % growth at 10 µM [53]: 108%
- % growth at 10 µM [54]: 124%
- activity at 10 µM [55]: 103%
- % growth at 10 µM [56]: 97%
- percent cell growth at 10 µM [57]: 110%
- % cell growth at 10 µM [58]: 84.4%

Compound: Nc1nc(S)nc(-c2ccc(Cl)cc2)c1-c1ncn[nH]1 [Compound 5b, 4-Amino-6–(4-chlorophenyl)-5-(1H-1,2,4-triazol-5-yl)pyrimidine-2-thiol]
- % growth at 10 µM [1]: 91.7%
- % cell growth at 10 µM [2]: 74.6%
- activity at 10 µM [3]: 86.4%
- % cell growth at 10 µM [4]: 109%
- % growth at 10 µM [5]: 108%
- activity at 10 µM [7]: 96.7%
- % growth at 10 µM [8]: 78.7%
- activity at 10 µM [9]: 92.1%
- activity at 10 µM [59]: 115%
- % growth at 10 µM [10]: 98.9%
- activity at 10 µM [11]: 91%
- activity at 10 µM [12]: 98.7%
- % growth of cells at 10 µM [13]: 94.8%
- % growth at 10 µM [14]: 85.5%
- percent cell growth at 10 µM [15]: 112%
- % growth at 10 µM [16]: 108%
- activity at 10 µM [17]: 97%
- activity at 10 µM [18]: 93.8%
- activity at 10 µM [19]: 103%
- activity at 10 µM [20]: 108%
- % cell growth at 10 µM [21]: 111%
- % growth at 10 µM [22]: 96.9%
- percent cell growth at 10 µM [24]: 101%
- activity at 10 µM [25]: 98.4%
- activity on all 60 cancer cell lines tested (in words) [25]: weak activity
- percent cell growth at 10 µM [26]: 85.5%
- % growth at 10 µM [27]: 98.8%
- % growth at 10 µM [28]: 85.5%
- % growth at 10 µM [29]: 82.8%
- % growth at 10 µM [30]: 110%
- % growth at 10 µM [31]: 95.9%
- % growth at 10 µM [32]: 108%
- % growth at 10 µM [33]: 102%
- % growth at 10 µM [35]: 108%
- % growth at 10 µM [36]: 93.5%
- % growth at 10 µM [37]: 112%
- % growth at 10 µM [38]: 103%
- % growth at 10 µM [39]: 93.7%
- % growth at 10 µM [40]: 109%
- activity at 10 µM [41]: 111%
- % growth at 10 µM [42]: 103%
- activity at 10 µM [43]: 99.2%
- % cell growth at 10 µM [44]: 98%
- % growth at 10 µM [45]: 92.7%
- % growth at 10 µM [60]: 94.8%
- % growth at 10 µM [46]: 95.4%
- activity at 10 µM [47]: 110%
- percent cell growth at 10 µM [48]: 96.6%
- activity at 10 µM [49]: 103%
- % growth at 10 µM [50]: 92.5%
- % growth at 10 µM [51]: 88.6%
- % cell growth at 10 µM [52]: 93.7%
- % growth at 10 µM [53]: 92.6%
- % growth at 10 µM [54]: 109%
- activity at 10 µM [55]: 98.7%
- % growth at 10 µM [56]: 98.6%
- percent cell growth at 10 µM [57]: 96.7%
- % cell growth at 10 µM [58]: 97.9%
